# Residue numbers refer to the chain shown, from its start.
# What was measured:
# [1] = molecular target: T1, Low molecular weight phosphotyrosine protein phosphatase (Homo sapiens, UniProt P24666); test: Inhibition of His-tagged human LMW-PTP expressed in Escherichia coli BL21 using pNPP as substrate incubated for 10 mins by microplate reader based spectrophotometric analysis
# T1 sequence (P24666 whole entry): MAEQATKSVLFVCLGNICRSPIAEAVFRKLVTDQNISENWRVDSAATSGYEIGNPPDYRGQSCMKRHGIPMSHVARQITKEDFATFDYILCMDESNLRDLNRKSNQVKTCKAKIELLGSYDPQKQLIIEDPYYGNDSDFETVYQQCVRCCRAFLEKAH
# [2] = molecular target: CYP2D6 (Homo sapiens, UniProt P10635); test: Inhibition of human hepatic CYP2D6 using bufuralol HCL as substrate measured after 3 mins by LC-MS analysis relative to control; type: ADME, tissue-based; parameters: concentration or dose not given beside the values; conditions: human hepatic CYP2D6 (liver), probe bufuralol HCl
# CYP2D6, sequence (P10635 whole entry): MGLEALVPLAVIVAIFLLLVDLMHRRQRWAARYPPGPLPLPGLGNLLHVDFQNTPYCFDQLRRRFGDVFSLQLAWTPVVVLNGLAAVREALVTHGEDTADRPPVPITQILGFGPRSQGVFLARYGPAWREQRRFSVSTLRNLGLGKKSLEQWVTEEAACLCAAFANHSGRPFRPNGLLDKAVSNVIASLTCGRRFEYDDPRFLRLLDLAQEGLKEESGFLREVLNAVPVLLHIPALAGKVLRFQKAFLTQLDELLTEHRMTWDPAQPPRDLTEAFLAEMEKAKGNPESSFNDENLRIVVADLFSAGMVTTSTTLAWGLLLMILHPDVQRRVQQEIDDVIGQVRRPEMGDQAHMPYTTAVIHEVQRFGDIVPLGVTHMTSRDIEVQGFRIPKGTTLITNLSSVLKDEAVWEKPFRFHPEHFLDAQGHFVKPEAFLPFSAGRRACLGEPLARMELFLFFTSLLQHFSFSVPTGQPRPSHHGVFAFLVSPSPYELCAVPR
# [3] = Tmax in Sprague-Dawley rat plasma at 30 mg/kg, po measured after 24 hrs by LC-MS/MS analysis; type: ADME, organism-based; conditions: in vivo
# [4] = Metabolic stability in human hepatic microsome at 4 uM measured after 30 mins by LC-MS analysis; type: ADME; conditions: liver microsomes, read-out: Stability
# [5] = Unbound Cmax in plasma of CD-1 mouse at 2 mg/kg, iv measured after 8 hrs by LC-MS/MS analysis; type: ADME, organism-based; conditions: in vivo
# [6] = Inhibition of PTP-Meg2 (unknown origin); parameters: species or system Homo sapiens
# [7] = Cmax in CD-1 mouse plasma at 10 mg/kg, po measured after 8 hrs by LC-MS/MS analysis; type: ADME, organism-based; parameters: dose 10 mg/kg, time 8 hrs, route po; conditions: CD-1, mouse, plasma
# [8] = Half life in CD-1 mouse plasma at 10 mg/kg, po measured after 8 hrs by LC-MS/MS analysis; type: ADME, organism-based; conditions: in vivo
# [9] = molecular target: CYP3A4 (Homo sapiens, UniProt P08684); test: Inhibition of human hepatic CYP3A4 using midazolam as substrate measured after 3 mins by LC-MS analysis relative to control; type: ADME, tissue-based; parameters: concentration or dose not given beside the values; conditions: human hepatic CYP3A4 (liver), probe midazolam
# CYP3A4, sequence (P08684 whole entry): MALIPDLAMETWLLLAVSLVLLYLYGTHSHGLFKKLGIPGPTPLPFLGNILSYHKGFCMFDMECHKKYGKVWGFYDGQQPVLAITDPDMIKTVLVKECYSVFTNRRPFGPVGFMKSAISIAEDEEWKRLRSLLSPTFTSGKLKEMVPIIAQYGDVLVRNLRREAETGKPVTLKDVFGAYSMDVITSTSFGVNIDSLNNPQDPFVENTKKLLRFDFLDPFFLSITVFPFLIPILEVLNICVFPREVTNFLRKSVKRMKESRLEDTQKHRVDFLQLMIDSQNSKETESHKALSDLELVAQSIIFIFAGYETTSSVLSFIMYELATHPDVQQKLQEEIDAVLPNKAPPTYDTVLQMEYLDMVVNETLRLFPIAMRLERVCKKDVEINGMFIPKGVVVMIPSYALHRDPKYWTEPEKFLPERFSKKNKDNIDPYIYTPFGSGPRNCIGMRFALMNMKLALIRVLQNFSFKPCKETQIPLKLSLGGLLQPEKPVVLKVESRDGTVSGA
# [10] = Unbound Cmax in plasma of Sprague-Dawley rat at 30 mg/kg, po measured after 24 hrs by LC-MS/MS analysis; type: ADME, organism-based; conditions: in vivo
# [11] = Cmax in CD-1 mouse plasma at 2 mg/kg, iv measured after 8 hrs by LC-MS/MS analysis; type: ADME, organism-based; parameters: time 8 hrs, dose 2 mg/kg, route iv
# [12] = Aqueous solubility of compound at pH 6 by HPLC analysis; type: physicochemical; conditions: buffer
# [13] = AUC(0 to 12 hrs) in Sprague-Dawley rat plasma at 30 mg/kg, po measured after 24 hrs by LC-MS/MS analysis; type: ADME, organism-based; parameters: time 24 hrs, dose 30 mg/kg, route po; conditions: in vivo
# [14] = Volume of distribution at steady state in CD-1 mouse plasma at 2 mg/kg, iv measured after 8 hrs by LC-MS/MS analysis; type: ADME, organism-based; conditions: in vivo
# [15] = Plasma protein binding in mouse assessed as unbound fraction measured after 4.5 hrs by LC-MS/MS analysis; type: ADME, cell-free
# [16] = Metabolic stability in dog hepatic microsome at 4 uM measured after 30 mins by LC-MS analysis; type: ADME, Canis lupus familiaris; conditions: liver microsomes, read-out: Stability
# [17] = Unbound Cmax in plasma of CD-1 mouse at 10 mg/kg, po measured after 8 hrs by LC-MS/MS analysis; type: ADME, organism-based; conditions: in vivo
# [18] = molecular target: T2, Low molecular weight phosphotyrosine protein phosphatase (Rattus norvegicus, UniProt P41498); test: Inhibition of N-terminal His-tagged full length rat LMW-PTP expressed in Escherichia coli BL21(DE3)
# T2 sequence (P41498 whole entry): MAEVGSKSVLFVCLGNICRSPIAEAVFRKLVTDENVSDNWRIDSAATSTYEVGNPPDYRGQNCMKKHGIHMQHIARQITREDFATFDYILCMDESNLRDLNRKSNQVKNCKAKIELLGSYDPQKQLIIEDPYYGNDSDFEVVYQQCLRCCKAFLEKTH
# [19] = Cmax in Sprague-Dawley rat plasma at 30 mg/kg, po measured after 24 hrs by LC-MS/MS analysis; type: ADME, organism-based; parameters: time 24 hrs, dose 30 mg/kg, route po; conditions: in vivo
# [20] = molecular target: T3, Low molecular weight phosphotyrosine protein phosphatase (Mus musculus, UniProt Q9D358); test: Inhibition of N-terminal His-tagged full length mouse LMW-PTP expressed in Escherichia coli BL21(DE3) by […] analysis
# T3 sequence (Q9D358 whole entry): T2 sequence (P41498 whole entry) with N35K, K65R, R80K, H158Y
# [21] = Oral bioavailability in CD-1 mouse plasma at 10 mg/kg measured after 8 hrs by LC-MS/MS analysis; type: ADME, organism-based; conditions: mouse, in vivo, po, 10 mg/kg, 8 h
# [22] = Half life in Sprague-Dawley rat plasma at 30 mg/kg, po measured after 24 hrs by LC-MS/MS analysis; type: ADME, organism-based; conditions: in vivo
# [23] = Half life in CD-1 mouse plasma at 2 mg/kg, iv measured after 8 hrs by LC-MS/MS analysis; type: ADME, organism-based; conditions: CD-1, mouse, plasma
# [24] = molecular target: CYP2C9 (Homo sapiens, UniProt P11712); test: Inhibition of human hepatic CYP2C9 using diclofenac as substrate measured after 10 mins by LC-MS analysis relative to control; type: ADME, tissue-based; parameters: concentration or dose not given beside the values; conditions: human hepatic CYP2C9 (liver), probe diclofenac
# CYP2C9, sequence (P11712 whole entry): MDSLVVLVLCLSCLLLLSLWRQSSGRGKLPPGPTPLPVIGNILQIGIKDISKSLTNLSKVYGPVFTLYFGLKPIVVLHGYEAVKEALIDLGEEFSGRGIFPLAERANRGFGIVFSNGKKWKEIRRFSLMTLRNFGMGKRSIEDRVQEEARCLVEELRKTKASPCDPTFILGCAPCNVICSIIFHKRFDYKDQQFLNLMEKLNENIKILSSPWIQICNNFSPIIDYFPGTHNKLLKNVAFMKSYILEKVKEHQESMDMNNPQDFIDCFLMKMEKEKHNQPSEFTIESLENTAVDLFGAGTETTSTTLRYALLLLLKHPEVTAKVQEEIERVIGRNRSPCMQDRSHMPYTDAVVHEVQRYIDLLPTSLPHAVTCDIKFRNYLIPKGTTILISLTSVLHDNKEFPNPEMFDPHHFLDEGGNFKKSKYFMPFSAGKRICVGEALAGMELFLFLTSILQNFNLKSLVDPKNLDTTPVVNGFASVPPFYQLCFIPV
# [25] = Metabolic stability in mouse hepatic microsome at 4 uM measured after 30 mins by LC-MS analysis; type: ADME; conditions: liver microsomes, read-out: Stability
# [26] = AUC(0 to 8 hrs) in CD-1 mouse plasma at 2 mg/kg, iv measured after 8 hrs by LC-MS/MS analysis; type: ADME, organism-based; parameters: dose 2 mg/kg, time 8 hrs, route iv; conditions: in vivo
# [27] = AUC(0 to 8 hrs) in CD-1 mouse plasma at 10 mg/kg, po measured after 8 hrs by LC-MS/MS analysis; type: ADME, organism-based; parameters: dose 10 mg/kg, time 8 hrs, route po; conditions: in vivo
# [28] = molecular target: Dual specificity protein phosphatase 23 (Homo sapiens, UniProt Q9BVJ7); test: Inhibition of VHZ (unknown origin)
# Dual specificity protein phosphatase 23, sequence (Q9BVJ7 whole entry): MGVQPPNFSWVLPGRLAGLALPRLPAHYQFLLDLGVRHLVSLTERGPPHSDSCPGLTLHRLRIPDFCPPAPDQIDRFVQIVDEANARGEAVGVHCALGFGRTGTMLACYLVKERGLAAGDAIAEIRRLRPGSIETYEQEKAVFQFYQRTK
smiles,measurement,setting,value
O=C(CS(=O)(=O)O)Nc1cc(C(F)(F)F)cc(C(F)(F)F)c1,IC50,[1],5.4 µM
O=C(CS(=O)(=O)O)Nc1cc(I)cc(I)c1,IC50,[1],3.4 µM
O=C(CS(=O)(=O)O)Nc1nc2cccc([N+](=O)[O-])c2s1,IC50,[1],1.5 µM
O=C(CS(=O)(=O)O)Nc1cnc2ncccc2c1,IC50,[1],1.5 µM
O=C(CS(=O)(=O)O)Nc1nccs1,IC50,[1],12.2 µM
O=C(CS(=O)(=O)O)Nc1cnc(N2CCOCC2)c(Br)c1,IC50,[1],1.2 µM
Cc1c(Br)cc(NC(=O)CS(=O)(=O)O)cc1Br,inhibition at 0.05 h,[2],1%
same,Tmax,[3],1.7 h
same,"remaining at 0.5 h, 4 µM",[4],7%
same,fCmax,[5],< 16 nM
same,IC50,[6],> 100 µM
same,Cmax,[7],2000 nM
same,t1/2,[8],4.2 h
same,inhibition at 0.05 h,[9],15%
same,fCmax,[10],< 85 nM
same,Cmax,[11],2000 nM
same,solubility,[12],740 µg/mL
same,AUC,[13],21.1 µM·h
same,Vdss,[14],0.58 L/kg
same,Fu,[15],< 0.008
same,"remaining at 0.5 h, 4 µM",[16],23%
same,fCmax,[17],< 16 nM
same,IC50,[18],0.062 µM
same,Cmax,[19],3030 nM
same,IC50,[1],2.2 µM
same,IC50,[20],0.062 µM
same,F,[21],43%
same,t1/2,[22],3.6 h
same,half-life,[23],1.5 h
same,inhibition at 10 min,[24],18%
same,"remaining at 0.5 h, 4 µM",[25],0%
same,AUC,[26],4.1 µM·h
same,AUC,[27],8.8 µM·h
same,IC50,[28],> 100 µM
O=C(CS(=O)(=O)O)Nc1nc2cc([N+](=O)[O-])ccc2s1,IC50,[1],0.4 µM
O=C(CS(=O)(=O)O)Nc1nc2ccc(C(=O)N3CCCC3)cc2s1,IC50,[1],0.3 µM
O=C(CS(=O)(=O)O)Nc1nc2ccc(C(F)(F)F)cc2s1,IC50,[1],0.6 µM
O=C(Nc1ccc(N2CCOCC2)c(Br)c1)NS(=O)(=O)O,IC50,[1],0.008 µM
CS(=O)(=O)c1ccc2nc(NC(=O)CS(=O)(=O)O)sc2c1,IC50,[1],0.3 µM
O=C(CS(=O)(=O)O)Nc1cc(Br)cc(C(F)(F)F)c1,IC50,[1],5.2 µM
Cc1ccc2nc(NC(=O)CS(=O)(=O)O)sc2c1,IC50,[1],1.7 µM
O=C(CS(=O)(=O)O)Nc1cc(Br)cc(Br)c1,IC50,[1],6 µM
O=C(Nc1nccs1)NS(=O)(=O)O,IC50,[1],0.049 µM
